Laboratory results from US20070154445A1, “Compositions, methods and kits for preventing the decomposition of urine” (priority 2006, published 2007).
Like-named read-outs stand apart in the source and are kept apart here.

[1] = 4 grams in total added to 600 milliliters of urine
[2] = 5 grams in total added to 600 milliliters of urine

Protocol: Accordingly, various compositions were tested to determine their effect on the pH when added to 600 milliliters of urine.

## O=C(O)C(O)C(O)C(=O)O (centres unmarked) [Pure tartaric acid in granular form, tartaric acid]
[1]
  Resulting pH: 3.4
[2]
  Resulting pH: 3.3

## O=C(O)CC(O)(CC(=O)O)C(=O)O [Pure citric acid in granular form, citric acid]
[1]
  Resulting pH: 3.8
[2]
  Resulting pH: 3.7

## O=C(O)CCC(=O)O [Pure succinic acid in granular form, succinic acid]
[2]
  Resulting pH: 4.2
